Two molecules from PMC9785925, “Solubility and Thermal Stability of Thermotoga maritima MreB” (International Journal of Molecular Sciences, 2022) can be followed below.

Common to all, as to assay type: binding
Assay [1] addresses T1, Tm-MreB (Thermotoga maritima, UniProt Q9WZ57).
T1 construct: recombinant in E. coli ArcticExpress (DE3), Ni-NTA purified, His-tag removed with PreScission protease; native purification
T1 sequence (Q9WZ57 1-336): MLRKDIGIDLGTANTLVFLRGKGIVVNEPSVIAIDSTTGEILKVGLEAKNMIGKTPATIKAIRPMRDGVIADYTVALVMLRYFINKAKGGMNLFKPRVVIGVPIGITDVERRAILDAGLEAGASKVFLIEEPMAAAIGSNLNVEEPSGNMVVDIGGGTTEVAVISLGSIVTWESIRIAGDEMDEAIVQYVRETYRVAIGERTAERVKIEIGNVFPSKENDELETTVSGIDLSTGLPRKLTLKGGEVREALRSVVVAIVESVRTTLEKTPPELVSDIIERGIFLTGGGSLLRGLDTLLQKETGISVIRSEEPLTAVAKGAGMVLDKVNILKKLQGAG
The experiment in a line: thermal denaturation, tryptophan fluorescence. As to conditions: 2 mM ATP, salt-free (4 mM TRIS-HCl, 0.1 mM CaCl2, pH 7.5); printed as 90 °C≤. The source says: thermal denaturation, tryptophan fluorescence on Tm-MreB

The target of assay [2] is T1, Tm-MreB. The experiment in a line: competition with TNP-ATP fluorescence, Langmuir single-site fit. As to conditions: salt-free (4 mM TRIS-HCl, 0.1 mM CaCl2, pH 7.5), 20 µM protein, 1 µM TNP-ATP; competitive; unreliable (text and figure legend disagree). An excerpt:
competition with TNP-ATP fluorescence, Langmuir single-site fit on Tm-MreB | we were able to determine the affinity of ATP for Tm-MreB

The target in assay [3] is T1, Tm-MreB. Briefly: TNP-ATP fluorescence titration, Hill fit.

Regarding `Nc1ncnc2c1ncn2[C@@H]1O[C@H](COP(=O)(O)OP(=O)(O)OP(=O)(O)O)[C@@H](O)[C@H]1O` [ATP], the “This Work (Tryptophan Signal)” value on Tm-MreB [1] was more than 90 °C. For the same molecule, the affinity on Tm-MreB [2] is ~ 2 µM.

Usually Kd stands for the constant that tells how readily two partners part at equilibrium. In the case of `Nc1ncnc2c1ncn2[C@@H]1O[C@H](COP(=O)(O)OP(=O)(O)OP(=O)(O)O)[C@H]2OC3(O[C@H]21)C([N+](=O)[O-])=CC(=[N+]([O-])[O-])C=C3[N+](=O)[O-]` (stereo partly drawn) [TNP-ATP], the equilibrium dissociation constant (Kd) at Tm-MreB [3] is 3.69 ± 0.04 µM.
